Measured values from PubChem BioAssay AID1794820.

Biological target: Na(+)/dicarboxylate cotransporter 3 (Homo sapiens) (UniProt Q8WWT9)
Test: SLC13A3 dicarboxylate substrate-evoked depolarization, dose response, membrane potential dye, HEK-293 overexpressing cells (AID 1794820)
Conditions: HEK-293 SLC13A3 OE, FLIPR membrane potential dye

Na(+)/dicarboxylate cotransporter 3 (Homo sapiens), sequence (Q8WWT9 whole entry, looked up): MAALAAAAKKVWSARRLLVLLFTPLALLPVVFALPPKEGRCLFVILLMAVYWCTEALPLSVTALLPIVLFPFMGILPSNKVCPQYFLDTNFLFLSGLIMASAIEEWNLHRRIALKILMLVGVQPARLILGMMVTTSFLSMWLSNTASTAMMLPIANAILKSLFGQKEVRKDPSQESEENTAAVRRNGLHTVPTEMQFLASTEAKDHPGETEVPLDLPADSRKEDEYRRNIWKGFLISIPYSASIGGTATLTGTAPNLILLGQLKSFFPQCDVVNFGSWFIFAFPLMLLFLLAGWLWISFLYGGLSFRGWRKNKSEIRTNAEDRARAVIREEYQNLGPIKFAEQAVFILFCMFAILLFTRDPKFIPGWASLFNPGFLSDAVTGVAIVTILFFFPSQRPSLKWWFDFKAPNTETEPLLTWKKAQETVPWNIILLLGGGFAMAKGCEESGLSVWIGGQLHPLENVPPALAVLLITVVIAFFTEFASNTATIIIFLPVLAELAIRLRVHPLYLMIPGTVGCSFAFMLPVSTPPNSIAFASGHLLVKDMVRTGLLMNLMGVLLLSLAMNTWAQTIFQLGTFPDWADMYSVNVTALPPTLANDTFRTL

## O=C(O)CCC(=O)O
  EC50: 107 µM

## O=C(O)CCC(=O)C(=O)O
  EC50: 54 µM
